{"source": "ChEMBL document CHEMBL1201862", "about": "“PubChem BioAssay data set” (2004)", "assay_in_all_cases": "DTP human tumour cell line panel, 48 h", "key": {"A498": {"test_system": "A498"}, "IGROV-1": {"test_system": "IGROV-1"}, "SNB-75": {"test_system": "SNB-75"}, "SK-MEL-28": {"test_system": "SK-MEL-28"}, "SK-MEL-5": {"test_system": "SK-MEL-5"}, "SF-268": {"test_system": "SF-268"}, "UACC-257": {"test_system": "UACC-257"}, "MCF7": {"test_system": "MCF7"}, "HCT-116": {"test_system": "HCT-116"}, "SNB-19": {"test_system": "SNB-19"}, "SN12C": {"test_system": "SN12C"}, "U-251": {"test_system": "U-251"}, "HT-29": {"test_system": "HT-29"}, "KM12": {"test_system": "KM12"}, "HOP-92": {"test_system": "HOP-92"}, "EKVX": {"test_system": "EKVX"}, "MDA-N": {"test_system": "MDA-N"}, "CAKI-1": {"test_system": "CAKI-1"}, "M14": {"test_system": "M14"}, "OVCAR-4": {"test_system": "OVCAR-4"}, "Hs-578T": {"test_system": "Hs-578T"}, "K562": {"test_system": "K562"}, "LOX IMVI": {"test_system": "LOX IMVI"}, "SW-620": {"test_system": "SW-620"}, "MDA-MB-435": {"test_system": "MDA-MB-435"}, "SK-MEL-2": {"test_system": "SK-MEL-2"}, "SR": {"test_system": "SR"}, "A549": {"test_system": "A549"}, "ACHN": {"test_system": "ACHN"}, "786-0": {"test_system": "786-0"}, "MDA-MB-231": {"test_system": "MDA-MB-231"}, "MOLT-4": {"test_system": "MOLT-4"}, "HCT-15": {"test_system": "HCT-15"}, "HOP-62": {"test_system": "HOP-62"}, "UACC-62": {"test_system": "UACC-62"}, "OVCAR-5": {"test_system": "OVCAR-5"}, "SK-OV-3": {"test_system": "SK-OV-3"}, "OVCAR-8": {"test_system": "OVCAR-8"}, "PC-3": {"test_system": "PC-3"}, "RPMI-8226": {"test_system": "RPMI-8226"}, "TK-10": {"test_system": "TK-10"}, "CCRF-CEM": {"test_system": "CCRF-CEM"}, "DU-145": {"test_system": "DU-145"}, "HL-60": {"test_system": "HL-60"}}, "note": "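1) Cells in 96-well plates. 2) Compound, 48 h, 5 concentrations. 3) Linear interpolation between surrounding doses. 4) Unreached endpoint = highest concentration. GI50 is the concentration that inhibits growth by half.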 Active and inactive are the calls of the source. No stated cut-off is given here; in the data, active = GI50 up to about 1.1 µM and inactive = higher."}
{"smiles": "N#Cc1nc(C2SCCCS2)oc1N", "values": [{"measurement": "GI50", "setting": "A498", "value": "> 100 µM (inactive)"}, {"measurement": "GI50", "setting": "IGROV-1", "value": "> 100 µM (inactive)"}, {"measurement": "GI50", "setting": "SNB-75", "value": "< 0.01 µM (active)"}, {"measurement": "GI50", "setting": "SK-MEL-28", "value": "> 100 µM (inactive)"}, {"measurement": "GI50", "setting": "SK-MEL-5", "value": "> 100 µM (inactive)"}, {"measurement": "GI50", "setting": "SF-268", "value": "> 100 µM (inactive)"}, {"measurement": "GI50", "setting": "UACC-257", "value": "> 100 µM (inactive)"}, {"measurement": "GI50", "setting": "MCF7", "value": "> 100 µM (inactive)"}, {"measurement": "GI50", "setting": "HCT-116", "value": "> 100 µM (inactive)"}, {"measurement": "GI50", "setting": "SNB-19", "value": "> 100 µM (inactive)"}, {"measurement": "GI50", "setting": "SN12C", "value": "> 100 µM (inactive)"}, {"measurement": "GI50", "setting": "U-251", "value": "> 100 µM (inactive)"}, {"measurement": "GI50", "setting": "HT-29", "value": "> 100 µM (inactive)"}, {"measurement": "GI50", "setting": "KM12", "value": "> 100 µM (inactive)"}, {"measurement": "GI50", "setting": "HOP-92", "value": "> 100 µM (inactive)"}, {"measurement": "GI50", "setting": "EKVX", "value": "> 100 µM (inactive)"}, {"measurement": "GI50", "setting": "MDA-N", "value": "> 100 µM (inactive)"}, {"measurement": "GI50", "setting": "CAKI-1", "value": "> 100 µM (inactive)"}, {"measurement": "GI50", "setting": "M14", "value": "> 100 µM (inactive)"}, {"measurement": "GI50", "setting": "OVCAR-4", "value": "> 100 µM (inactive)"}, {"measurement": "GI50", "setting": "Hs-578T", "value": "43 µM (inactive)"}, {"measurement": "GI50", "setting": "K562", "value": "> 100 µM (inactive)"}, {"measurement": "GI50", "setting": "LOX IMVI", "value": "> 100 µM (inactive)"}, {"measurement": "GI50", "setting": "SW-620", "value": "> 100 µM (inactive)"}, {"measurement": "GI50", "setting": "MDA-MB-435", "value": "> 100 µM (inactive)"}, {"measurement": "GI50", "setting": "SK-MEL-2", "value": "> 100 µM (inactive)"}, {"measurement": "GI50", "setting": "SR", "value": "> 100 µM (inactive)"}, {"measurement": "GI50", "setting": "A549", "value": "> 100 µM (inactive)"}, {"measurement": "GI50", "setting": "ACHN", "value": "> 100 µM (inactive)"}, {"measurement": "GI50", "setting": "786-0", "value": "> 100 µM (inactive)"}, {"measurement": "GI50", "setting": "MDA-MB-231", "value": "> 100 µM (inactive)"}, {"measurement": "GI50", "setting": "MOLT-4", "value": "> 100 µM (inactive)"}, {"measurement": "GI50", "setting": "HCT-15", "value": "> 100", "unit": "µM"}, {"measurement": "GI50", "setting": "HOP-62", "value": "> 100 µM (inactive)"}, {"measurement": "GI50", "setting": "UACC-62", "value": "> 100 µM (inactive)"}, {"measurement": "GI50", "setting": "OVCAR-5", "value": "> 100 µM (inactive)"}, {"measurement": "GI50", "setting": "SK-OV-3", "value": "> 100 µM (inactive)"}, {"measurement": "GI50", "setting": "OVCAR-8", "value": "> 100 µM (inactive)"}, {"measurement": "GI50", "setting": "PC-3", "value": "> 100 µM (inactive)"}, {"measurement": "GI50", "setting": "RPMI-8226", "value": "95.7 µM (inactive)"}, {"measurement": "GI50", "setting": "TK-10", "value": "> 100 µM (inactive)"}, {"measurement": "GI50", "setting": "CCRF-CEM", "value": "64.3 µM (inactive)"}, {"measurement": "GI50", "setting": "DU-145", "value": "> 100 µM (inactive)"}, {"measurement": "GI50", "setting": "HL-60", "value": "> 100 µM (inactive)"}]}
